Data taken from US10245249B2, “Pharmaceutical compositions comprising nitroxyl donors” (Cardioxyl Pharmaceuticals, Inc., priority 2013, dated 2019).

Legend:
[1] = Exploratory studies on the cause of CXL-1020 side effects (byproduct, alternative short half-life donors); format: in vivo; conditions: studies conducted with the byproduct
Description: Exploratory studies were continued to determine the cause of the undesirable side effects of CXL-1020 at the higher, but still clinically desirable, doses. […] Studies were conducted with alternative Nitroxyl donors that were structurally unrelated to CXL-1020 but had similar half-lives for nitroxyl donation (half-lives of about 2 minutes). In all instances, local vascular side effects at the catheter tip were observed.

dogs [2] = test: Canine implanted central catheter 72 hour continuous infusion model (clinical and microscopic pathology of vasculature); format: in vivo
Description: To determine the cause of the inflammation and hind limb swelling, a series of 72-hour continuous infusion investigative studies were conducted over the following 6 months. […] The first site of inflammation, the catheter insertion site, caused the dog hind limb swelling and inflammation observed in the early-terminated follow-up study. Increasing infusate pH from 4 to 6 decreased inflammation, improving the inflammatory profile by approximately 3-fold (see FIG. 4).
Confirmation of this was obtained through evaluating the nitroxyl donors through detailed histopathology of the vasculature at the site of insertion of into the femoral vein (15 cm distal to the catheter tip), along the catheter track to the catheter tip, and past the tip downstream 20 cm.
A composite score was calculated from the sum of these findings scores. In FIG. 3, the cumulative histology composite score ranges from 0-2 (low severity) to 11-12 (high severity). […] The NOAEL values determined based on these microscopic pathology markers for a series of nitroxyl donors, expressed in molar equivalent dose rates (μg/kg/min) to CXL-1020, are provided in Table 8.

[3] = In vitro stability (half-life) in human plasma; format: in vitro ADME; conditions: male, human plasma pH 7.4 with anticoagulant, 37° C., read-out: T1/2 (minutes) Human
Description: (§1) Certain compounds from Tables 1 and 2 and CXL-1020 were tested for their stability in phosphate buffered saline (PBS) and plasma. The assay system comprised (i) PBS, or plasma from rat, dog or human (at least 3 donors, male, pooled) at pH 7.4, and (ii) for tests conducted in plasma, an anticoagulant (sodium heparin or sodium citrate). Each test compound (5 μM) was incubated in PBS or plasma at 37° C. on a THERMOMIXER® with shaking. Three samples (n=3) were taken at each of seven sampling time points: 0, 10, 30, 60, 90, 180 and 360 minutes. The samples were immediately combined with 3 volumes (i.e., 3 times the volume of PBS or plasma) of acetonitrile containing 1% formic acid and an internal standard to terminate the reaction. AB SCIEX API 3000 LC-MS/MS analysis of the test compounds was performed without a standard curve. Half-lives (T1/2) of the test compounds were determined from graphs of the percent remaining values using the peak area response ratio. For compounds tested multiple times, the value provided in the Table represents an average of the replicate assays.

dogs [4] = test: Toxicological profile of compositions formulated at pH 4 or pH 6, 24 hour infusion at 3 μg/kg/min; format: in vivo; conditions: 1:1 molar donor:CAPTISOL, infused at 3 μg/kg/min, FIG. 4
Description: For samples at a pH of 4, the compositions were prepared by admixing a 1:1 molar ratio of the nitroxyl donor:CAPTISOL®, lyophilizing the admixture, then diluting the lyophilized admixture into D5W. For samples at a pH of 6, the compositions were prepared by admixing a 1:1 molar ratio of the nitroxyl donor:CAPTISOL®, lyophilizing the admixture, then diluting the lyophilized admixture into D5W with 5 mM potassium phosphate. Compounds were infused at a rate of 3 μg/kg/min.

[5] = In vitro stability (half-life) in phosphate buffered saline (PBS) pH 7.4; format: physicochemical; conditions: pH 7.4, 5 μM, PBS pH 7.4, 37° C., read-out: T1/2 (minutes) PBS
Description: as §1

beagle dogs = test: Canine peripheral vein toxicity model, 24 hour infusion (clinical pathology markers of inflammation: WBC, fibrinogen, CRP); format: in vivo
Description: Key inflammatory markers measured include white blood cells (WBC), fibrinogen, and C-reactive protein (CRP).
After 24 hours of infusion, clinical pathology changes similar to those observed in previous studies using an implanted central catheter were detected.
Studies were conducted in male and female beagle dogs. Animals were allowed free access to drinking water and a commercial canine diet under standard laboratory conditions. Animals were fasted prior to blood sample collections when indicated by the study protocol. Fluorescent lighting was provided via an automatic timer for approximately 12 hours per day. On occasion, the dark cycle was interrupted intermittently due to study-related activities. Temperature and humidity were monitored and recorded daily and maintained to the maximum extent possible between 64° F. to 84° F. and 30% to 70%, respectively. The dogs were acclimated for a period of at least 1 week. During this period, the animals were weighed weekly and observed with respect to general health and any signs of disease. The animals were acclimated to wearing a jacket for at least three days prior to dose administration. Additionally, the animals were also acclimated to wearing an Elizabethan collar (e-collar) during the jacket acclimation.
Animals were catheterized the day prior to dose administration. A percutaneous catheter was placed (using aseptic technique and sterile bandaging) in the cephalic vein distal to the elbow. The animals were free-moving in their cages during continuous infusion dose administration. To facilitate continuous infusion dose administration, the peripheral catheter was attached to an extension set routed underneath a canine jacket and then attached to a tether infusion system. To prevent the animals from accessing/removing the peripherally placed percutaneous catheter, the catheterization site was bandaged using Vet Wrap and an e-collar was placed on the animals for the duration of the treatment (i.e., the catheterized period). During the pretreatment period, the venous catheter was infused continuously at a rate of approximately 2-4 mL/hr with 0.9% sodium chloride for injection, USP (saline) to maintain catheter patency. Prior to dosing, the infusion system was pre-filled (slow bolus infusion) with the respective dosing solution to ensure that dosing began as soon as the infusion pump was started. The infusion line was connected to a reservoir containing the control or test compound and the infusion was started. Test compositions were infused continuously, at a predetermined constant infusion rate (1 or 2 mL/kg/hr), for 24 hours and were compared at molar equivalent dose rates.
A detailed clinical examination of each animal was performed twice daily and body temperature measurements and blood samples for clinical pathology were collected from all animals pre-dose and 6 hours, 12 hours, 24 hours and 72 hours post start of composition infusion. At the termination of the study, all animals were euthanized at their scheduled necropsy and complete necropsy examinations were performed. Selected tissues were collected, fixed and stored for potential future microscopic examination. The cephalic vein containing the infusion catheter was dissected intact along with the brachial vein and examined along its entire length. The location of the catheter tip was marked on the unfixed specimen. After fixation, the specimen was trimmed and processed to slide to provide transverse histologic sections representing the catheter tip and surrounding tissues both proximal and distal to the catheter tip (i.e., 1 cm distal to the catheter tip, at the catheter tip, and 1, 5, 10, 15, and 20 cm proximal to the catheter tip). Relative to the catheter tip, “proximal” was defined as closer to the heart and “distal” was defined as further from the heart.
Each compound was formulated with CAPTISOL® (7% w/v) in sterile water at a pH of 4. […]

[6] = In vitro stability (half-life) in dog plasma; format: in vitro ADME; conditions: male, dog, plasma, pH 7.4, 5 μM, dog plasma pH 7.4 with anticoagulant, 37° C.; read-out: T1/2 (minutes) Dog
Description: as §1

Row | SMILES | side effects [1] | NOAEL (μg/kg/min) (molar equivalent to CXL-1020) (dogs [2]; based on microscopic pathology markers (edema, hemorrhage, vascular and perivascular inflammation)) | toxicological profile relative to CXL-1020 (dogs [2]; microscopic pathology, Table 8) | half-life at 5 μM [3] | effect of increasing infusate pH from approximately 4 to approximately 6 on toxicology (dogs [4]) | half-life at 5 μM [5] | NOAEL (μg/kg/min) (actual) (beagle dogs; based on clinical pathology markers (WBC, fibrinogen, CRP), 24 hour infusion, CAPTISOL 7% w/v, pH 4) | NOAEL compared with CXL-1020 (beagle dogs; clinical pathology markers) | half-life at 5 μM [6]
1 | CS(=O)(=O)c1ccccc1S(=O)O [byproduct of CXL-1020] | negative | – | – | – | – | – | – | – | –
2 | O=S(=O)(NO)c1ccc(Cl)s1 [Compound 86, 5-Chloro-N-hydroxythiophene-2-sulfonamide] | – | ≥180 µg/kg/min | substantially improved toxicological profile relative to CXL-1020 | 18 min | improved the toxicology | 38 min | 3 µg/kg/min | significantly higher than that of CXL-1020 | 12 min
